Reference: the NIST ThermoML archive (doi:10.1021/acs.jced.9b00511)
Numbers after ± are expanded uncertainties.

Legend:
[1] = wn = mass fraction of the nth substance listed; settings: Wilhelmy Plate
[2] = Wilhelmy Plate

CCCCn1cc[n+](C)c1.NCCCC[C@H](N)C(=O)[O-] [1-butyl-3-methylimidazolium L-lysinate] + O
surface tension liquid-gas [mN/m], [1]
Settings | w1 = 0.025 | w1 = 0.05 | w1 = 0.075 | w1 = 0.1 | w1 = 0.15 | w1 = 0.2 | w1 = 0.4 | w1 = 0.6 | w1 = 0.8 | w1 = 1
303.2 K | 62.5 ± 1.1 | 59.9 ± 1.1 | 57.3 ± 0.8 | 55.1 ± 0.7 | 52.5 ± 0.6 | 50.1 ± 0.4 | 48.4 ± 0.4 | 47.1 ± 0.4 | 46.4 ± 0.5 | 45.9 ± 0.6
308.2 K | 59.8 ± 0.9 | 57.7 ± 1 | 55.2 ± 0.9 | 53.3 ± 0.6 | 50.9 ± 0.5 | 49.1 ± 0.4 | 47.6 ± 0.4 | 46.4 ± 0.4 | 45.9 ± 0.5 | 45.5 ± 0.5
313.2 K | 57.3 ± 0.7 | 55.5 ± 0.9 | 53.2 ± 0.9 | 51.5 ± 0.6 | 49.3 ± 0.5 | 48.1 ± 0.3 | 46.8 ± 0.4 | 45.7 ± 0.4 | 45.5 ± 0.5 | 45.1 ± 0.5
318.2 K | 54.3 ± 0.8 | 52.5 ± 0.8 | 50.8 ± 0.7 | 49.4 ± 0.5 | 47.7 ± 0.4 | 46.8 ± 0.3 | 45.9 ± 0.4 | 45.3 ± 0.4 | 45 ± 0.5 | 44.7 ± 0.5
323.2 K | 51.1 ± 0.7 | 49.6 ± 1.4 | 48.5 ± 0.4 | 47.3 ± 0.4 | 46.2 ± 0.4 | 45.5 ± 0.3 | 45.1 ± 0.4 | 44.9 ± 0.4 | 44.6 ± 0.5 | 44.2 ± 0.5

CCCCn1cc[n+](C)c1.NCCCC[C@H](N)C(=O)[O-] [1-butyl-3-methylimidazolium L-lysinate]
[2]
Settings | surface tension liquid-gas [mN/m]
303.2 K | 45.9 ± 0.6
308.2 K | 45.5 ± 0.5
313.2 K | 45.1 ± 0.5
318.2 K | 44.7 ± 0.5
323.2 K | 44.2 ± 0.5

CCCCn1cc[n+](C)c1.NCC(=O)[O-] [1-butyl-3-methylimidazolium glycinate] + O
surface tension liquid-gas [mN/m], [1]
Settings | w1 = 0.025 | w1 = 0.05 | w1 = 0.075 | w1 = 0.1 | w1 = 0.15 | w1 = 0.2 | w1 = 0.4 | w1 = 0.6 | w1 = 0.8 | w1 = 1
303.2 K | 59.4 ± 1.1 | 56.7 ± 0.6 | 53.6 ± 1.3 | 50.7 ± 0.8 | 48.3 ± 0.6 | 46.8 ± 0.3 | 46 ± 0.4 | 45.5 ± 0.4 | 44.7 ± 0.5 | 42.9 ± 0.5
308.2 K | 56.8 ± 1 | 54.3 ± 1.1 | 51.6 ± 1.1 | 49.2 ± 0.6 | 47.3 ± 0.5 | 45.9 ± 0.3 | 45.3 ± 0.4 | 44.9 ± 0.4 | 44.1 ± 0.5 | 42.6 ± 0.5
313.2 K | 54.1 ± 1 | 51.9 ± 1 | 49.5 ± 0.9 | 47.7 ± 0.5 | 46.2 ± 0.4 | 45 ± 0.3 | 44.6 ± 0.4 | 44.3 ± 0.4 | 43.5 ± 0.5 | 42.4 ± 0.5
318.2 K | 51.5 ± 0.8 | 49.6 ± 0.8 | 47.8 ± 0.7 | 46.4 ± 0.5 | 45.1 ± 0.4 | 44.2 ± 0.3 | 43.8 ± 0.4 | 43.4 ± 0.4 | 42.8 ± 0.5 | 42.1 ± 0.5
323.2 K | 48.9 ± 0.7 | 47.3 ± 2.2 | 46.1 ± 0.4 | 45.1 ± 0.4 | 44 ± 0.4 | 43.4 ± 0.3 | 43 ± 0.4 | 42.6 ± 0.4 | 42.1 ± 0.5 | 41.7 ± 0.5

CC(O)CN(C)C (stereo not given) [1-(dimethylamino)-2-propanol] + O
surface tension liquid-gas [mN/m], [1]
Settings | 303.2 K | 308.2 K | 313.2 K | 318.2 K | 323.2 K
w1 = 0.3 | 36.2 ± 0.4 | 35.4 ± 0.4 | 34.6 ± 0.4 | 33.9 ± 0.4 | 33.2 ± 0.4
w1 = 0.4 | 33.5 ± 0.4 | 32.7 ± 0.4 | 32.1 ± 0.4 | 31.5 ± 0.4 | 30.9 ± 0.4
w1 = 0.5 | 31.5 ± 0.4 | 31 ± 0.4 | 30.2 ± 0.4 | 29.6 ± 0.4 | 29.1 ± 0.4
w1 = 1 | 24 ± 0.4 | 23.2 ± 0.4 | 22.6 ± 0.4 | 22 ± 0.4 | 21.3 ± 0.4

CCCCn1cc[n+](C)c1.NCC(=O)[O-] [1-butyl-3-methylimidazolium glycinate]
[2]
Settings | surface tension liquid-gas [mN/m]
303.2 K | 42.9 ± 0.5
308.2 K | 42.6 ± 0.5
313.2 K | 42.4 ± 0.5
318.2 K | 42.1 ± 0.5
323.2 K | 41.7 ± 0.5

CC(O)CN(C)C (stereo not given) [1-(dimethylamino)-2-propanol]
[2]
Settings | surface tension liquid-gas [mN/m]
303.2 K | 24 ± 0.4
308.2 K | 23.2 ± 0.4
313.2 K | 22.6 ± 0.4
318.2 K | 22 ± 0.4
323.2 K | 21.3 ± 0.4

C[N+](C)(C)C.NCC(=O)[O-] [tetramethylammonium glycinate] + O
surface tension liquid-gas [mN/m], [1]
Settings | w1 = 0.025 | w1 = 0.05 | w1 = 0.075 | w1 = 0.1 | w1 = 0.15 | w1 = 0.2 | w1 = 0.4 | w1 = 0.6 | w1 = 0.8 | w1 = 1
303.2 K | 67.8 ± 1 | 65.4 ± 0.4 | 64.1 ± 0.8 | 62.7 ± 0.5 | 61.6 ± 0.5 | 60.2 ± 0.3 | 58.5 ± 0.3 | 57.6 ± 0.4 | 56.9 ± 0.4 | 56.2 ± 0.4
308.2 K | 66.6 ± 1 | 64.3 ± 0.8 | 62.9 ± 0.6 | 61.6 ± 0.4 | 60.6 ± 0.4 | 59.5 ± 0.3 | 57.8 ± 0.3 | 56.9 ± 0.4 | 56.3 ± 0.4 | 55.6 ± 0.4
313.2 K | 65.4 ± 0.9 | 63.3 ± 0.7 | 62.2 ± 0.6 | 60.6 ± 0.4 | 59.7 ± 0.4 | 58.8 ± 0.3 | 57.1 ± 0.3 | 56.2 ± 0.4 | 55.8 ± 0.4 | 55.1 ± 0.4
318.2 K | 64.3 ± 0.7 | 62.5 ± 0.7 | 61 ± 0.6 | 59.8 ± 0.4 | 58.9 ± 0.4 | 58.1 ± 0.3 | 56.5 ± 0.3 | 55.8 ± 0.4 | 55.2 ± 0.4 | 54.5 ± 0.4
323.2 K | 62.3 ± 0.6 | 61.1 ± 0.6 | 60 ± 0.4 | 58.7 ± 0.4 | 57.9 ± 0.4 | 57.1 ± 0.3 | 56 ± 0.3 | 55.4 ± 0.4 | 54.6 ± 0.4 | 53.9 ± 0.4

C[N+](C)(C)C.NCC(=O)[O-] [tetramethylammonium glycinate]
[2]
Settings | surface tension liquid-gas [mN/m]
303.2 K | 56.2 ± 0.4
308.2 K | 55.6 ± 0.4
313.2 K | 55.1 ± 0.4
318.2 K | 54.5 ± 0.4
323.2 K | 53.9 ± 0.4
